Measurements reported in the supplement of paper PMC10307832.

Tests used:
Assay in all cases: relative viability (nuclei count vs DMSO), 5 days (fraction); higher = more cells survive
[1] = compound: CC1=CC(=CC=C1)NC2=NC(=CS2)C3=CC=NC=C3 + C[C@@H](Oc1cc(-c2cnn(C3CCNCC3)c2)cnc1N)c1c(Cl)ccc(F)c1Cl [Crizotinib] (partner 1 µM)
Summary of the method: (§1)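 Relative viability is defined as nuclei in treated wells over nuclei in vehicle wells. Duplicate plates were run and medians reported. Lung cancer cell lines in 1536-well plates were dosed by pin tool one day after seeding, with one drug or with a fixed anchor-drug dose plus five library-drug doses (not always all listed) in √10 steps, and nuclei were counted after 5 days.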

[2] = compound: CC1=CC(=CC=C1)NC2=NC(=CS2)C3=CC=NC=C3 + C[C@]1(O)C[C@@H](c2nc(-c3ccc4ccc(-c5ccccc5)nc4c3)c3c(N)nccn32)C1 [Linsitinib] (partner 1 µM)
Summary of the method: as §1

Masitinib + Decitabine = compound: Cc1ccc(NC(=O)c2ccc(CN3CCN(C)CC3)cc2)cc1Nc1nc(-c2cccnc2)cs1 [Masitinib] + Nc1ncn([C@H]2C[C@H](O)[C@@H](CO)O2)c(=O)n1 [Decitabine] (partner 2 µM)
Summary of the method: as §1

Masitinib + Palbociclib = compound: Cc1ccc(NC(=O)c2ccc(CN3CCN(C)CC3)cc2)cc1Nc1nc(-c2cccnc2)cs1 [Masitinib] + CC(=O)c1c(C)c2cnc(Nc3ccc(N4CCNCC4)cn3)nc2n(C2CCCC2)c1=O [Palbociclib] (partner 0.5 µM)
Summary of the method: as §1

| Cell Line | relative viability ([1]; first compound 0.08 µM) | relative viability ([1]; first compound 0.253 µM) | relative viability ([1]; first compound 0.8 µM) | relative viability ([1]; first compound 2.53 µM) | relative viability ([1]; first compound 8 µM) | relative viability ([2]; first compound 0.08 µM) | relative viability ([2]; first compound 0.253 µM) | relative viability ([2]; first compound 0.8 µM) | relative viability ([2]; first compound 2.53 µM) | relative viability ([2]; first compound 8 µM) | relative viability (Masitinib + Decitabine; first compound 0.01 µM) | relative viability (Masitinib + Decitabine; first compound 0.03162 µM) | relative viability (Masitinib + Decitabine; first compound 0.1 µM) | relative viability (Masitinib + Decitabine; first compound 0.3162 µM) | relative viability (Masitinib + Decitabine; first compound 1 µM) | relative viability (Masitinib + Palbociclib; first compound 0.01 µM) | relative viability (Masitinib + Palbociclib; first compound 0.03162 µM) | relative viability (Masitinib + Palbociclib; first compound 0.1 µM) | relative viability (Masitinib + Palbociclib; first compound 0.3162 µM) | relative viability (Masitinib + Palbociclib; first compound 1 µM) |
| --- | --- | --- | --- | --- | --- | --- | --- | --- | --- | --- | --- | --- | --- | --- | --- | --- | --- | --- | --- | --- |
| NCI-H2085 | 0.64 | 0.891 | 0.918 | 0.877 | 0.627 | 0.901 | 0.952 | 0.911 | 0.838 | 0.578 | 0.55 | 0.522 | 0.511 | 0.536 | 0.509 | 0.432 | 0.493 | 0.486 | 0.491 | 0.459 |
| NCI-H2087 | 0.895 | 1.04 | 0.847 | 0.67 | 0.838 | 0.934 | 0.862 | 0.996 | 0.888 | 0.798 | 0.25 | 0.247 | 0.32 | 0.223 | 0.254 | 0.211 | 0.221 | 0.234 | 0.198 | 0.237 |
| NCI-H2126 | 0.975 | 1.01 | 1 | 0.983 | 0.846 | 0.671 | 0.694 | 0.71 | 0.726 | 0.657 | 0.58 | 0.499 | 0.586 | 0.505 | 0.567 | 0.33 | 0.341 | 0.376 | 0.337 | 0.379 |
| NCI-H2347 | 0.544 | 0.688 | 0.468 | 0.789 | 0.777 | 0.751 | 0.802 | 0.688 | 0.948 | 0.93 | 0.598 | 0.529 | 0.614 | 0.669 | 0.652 | 0.381 | 0.389 | 0.408 | 0.422 | 0.444 |
| NCI-H2405 | 0.684 | 0.774 | 0.615 | 0.874 | 0.808 | 0.777 | 0.927 | 0.799 | 0.999 | 0.926 | 0.688 | 0.692 | 0.762 | 0.764 | 0.692 | 0.48 | 0.504 | 0.508 | 0.499 | 0.514 |
| NCI-H3122 | 0.266 | 0.31 | 0.334 | 0.332 | 0.47 | 0.991 | 0.938 | 0.907 | 1 | 0.964 | 0.528 | 0.484 | 0.525 | 0.467 | 0.451 | 0.163 | 0.197 | 0.227 | 0.18 | 0.175 |
| PC-3 [JPC-3] | 0.875 | 0.913 | 0.852 | 0.904 | 0.799 | 0.888 | 0.878 | 0.772 | 0.903 | 0.91 | 0.828 | 0.771 | 0.824 | 0.819 | 0.785 | 0.438 | 0.498 | 0.553 | 0.526 | 0.466 |
| PC-14 | 0.87 | 0.881 | 0.821 | 0.951 | 0.695 | 0.858 | 0.944 | 0.86 | 1.01 | 0.844 | 0.217 | 0.202 | 0.192 | 0.16 | 0.25 | 0.57 | 0.323 | 0.636 | 0.57 | 0.621 |
| RERF-LC-KJ | 0.741 | 0.705 | 0.556 | 0.59 | 0.512 | 0.78 | 0.872 | 0.684 | 0.683 | 0.563 | 0.631 | 0.71 | 0.743 | 0.762 | 0.618 | 1.05 | 1.02 | 1.09 | 1.21 | 0.938 |
| SK-LU-1 | 0.751 | 1 | 0.636 | 0.912 | 0.938 | 1.03 | 1.1 | 0.815 | 1.17 | 1 | 0.569 | 0.526 | 0.725 | 0.594 | 0.646 | 0.431 | 0.362 | 0.373 | 0.405 | 0.416 |
| SK-MES-1 | 0.79 | 0.781 | 0.815 | 0.842 | 0.853 | 0.878 | 0.933 | 0.81 | 1.04 | 0.874 | 0.329 | 0.399 | 0.376 | 0.39 | 0.337 | 0.306 | 0.269 | 0.318 | 0.302 | 0.336 |
| SW 1573 | 0.671 | 0.77 | 0.864 | 1.01 | 0.783 | 0.845 | 0.65 | 0.705 | 0.901 | 0.779 | 0.492 | 0.537 | 0.535 | 0.51 | 0.471 | 0.357 | 0.372 | 0.446 | 0.41 | 0.374 |
